Test results from patent publication US11883526B2 (priority 2019, dated 2024).
Where “and” joins values, the source holds several entries; their conditions need not be identical. Identical values can stand only once. Entries after “also recorded” stand apart in the source; their conditions may differ. Counter-ions that a name gives are not always drawn. Like-named read-outs stand apart in the source and are kept apart here. Marks after values point to notes of the source that are not given here.

Columns and labels:
[1] = system: female Sprague-Dawley rats; assay: 14-day repeated dose neurotoxicity study: brain histopathology (neuronal necrosis in PCG/RSC); details: up to 54 mg/day for 14 days, 48 hours after last instillation; hydrochloride
Protocol: Due to logistic constraints associated with the whole body perfusion procedure of the animals at necropsy, a staggered start was applied to the study. Consequently, all 5 groups of main study animals were divided into three subgroups of 4 animals each. For each of these subgroups treatment started on a different day. The perfusion procedure is the is the same as described for the single dose study.
All vehicle- and esketamine HCl-treated animals were sacrificed at 48 hours after the last instillation. […] The brain tissue of the vehicle control-, positive control- and esketamine HCl-treated rats were processed at the same time and handled in the same way in batches of 4 animals per group.
Brain tissue was sampled and processed routinely. The trimmed and embedded tissue was sectioned and stained with hematoxylin-eosin (HE). Histoprocessing and staining were carried out in three batches of 4 animals per group (each batch thus containing 4 animals from vehicle control-, positive control- and the three esketamine HCl-treated groups).
Histopathological examination was performed on 7 levels of brain tissue according to Bolon (2013. Toxicol. Pathol. 41(7), 1028-1048) from the vehicle control-, positive control-, and high dose esketamine HCl-treated groups in the single dose study, and in all groups in the repeated dose study.
The microscopic finding of neuronal necrosis in the PCG/RSC of the brain was graded unilaterally according to the number of necrotic neurons observed over the total length of the PCG/RSC structure visible in the tissue section (usually around 3-5 mm) utilizing the following criteria:

[2] = Solubility of esketamine HCl; details: room temperature, pH 4.5, factor 1.15
Protocol: The clinical investigational product is an aqueous solution of the drug substance, esketamine hydrochloride (HCl). This formulation is administered intranasally to patients using a dual nasal spray device, which delivers one spray into each nostril. […] The formulation was stored at 37° C. for stability reasons until dosing.

[3] = system: female Sprague-Dawley rats; assay: Single dose neurotoxicity study: mortality, clinical observations, body weight; type: in vivo, rat; details: for Clinical observation incidence: Abnormal respiration / Clinical observation incidence: Ataxia / Clinical observation incidence: Catalepsy / Clinical observation incidence: Chromodacryorrhea / Clinical observation incidence: Decreased general activity / Clinical observation incidence: Decubitus / Clinical observation incidence: Increased general activity / Clinical observation incidence: Narrowed palpebral fissure / Clinical observation incidence: Piloerection / Clinical observation incidence: Salivation (out of normal) / Clinical observation incidence: audible respiration / Clinical observation incidence: bradypnoea: single dose
Protocol: The injection volume was 5 mL/kg.
(§1) Body weight and body weight gain were measured daily.

[4] = system: female Sprague-Dawley rats; assay: Single dose neurotoxicity study: brain histopathology (neuronal necrosis in PCG/RSC); details: single dose up to 72 mg, 48 or 96 hours post-dose; hydrochloride
Protocol: In order to prepare for brain histopathology examination, all main study animals were perfused at necropsy. Prior to the perfusion, rats were anesthetized with isoflurane. After injection of 0.1 ml heparin, the blood of the rat was flushed out with a physiological saline solution by intraarterial insertion of a needle in the abdominal aorta. Thereafter the rat was perfused with glutaraldehyde 3% in potassium phosphate 0.09M and 1.4% sucrose. Due to logistic constraints at maximum 30 animals could undergo the whole-body perfusion procedure on a given day. Therefore, a staggered start of treatment was applied to all 5 groups of main study animals. Consequently, subgroups of 4 main study animals of the vehicle- and 36 and 54 mg-dosed groups, and 5 main study animals of the 72 mg-dosed and positive control groups, were dosed on 6 consecutive days, respectively.
The vehicle control, positive control, and esketamine HCl-dosed animals were sacrificed at either 48 hours (i.e., the first 12 or 15 rats per group) or 96 hours after the dose administration time (i.e., the last 12 or 15 rats per group). The brain tissue of the vehicle control-, positive control- and esketamine HCl-treated rats were processed at the same time and handled in the same way in batches of 4 or 5 animals per group.
Brain tissue was sampled and processed routinely. […]

[5] = system: female Sprague-Dawley rats; assay: 14-day repeated dose neurotoxicity study: mortality, clinical observations, body weight; type: in vivo, rat; details: for Clinical observation incidence: Abnormal respiration / Clinical observation incidence: Ataxia / Clinical observation incidence: Chromodacryorrhea / Clinical observation incidence: Decreased general activity / Clinical observation incidence: Decubitus / Clinical observation incidence: Increased general activity / Clinical observation incidence: Salivation (out of normal) / Clinical observation incidence: audible respiration / Clinical observation incidence: bradypnoea: 14 days
Protocol: as §1

[6] = From the text: This example provides an LC-MS/MS method for the determination of ketamine and norketamine in sodium heparin human plasma using ketamine-d4 and norketamine-d4 as the respective internal standards (IS).
[7] = system: adult female Sprague Dawley rats; details: 3 hours after a single intraperitoneal injection; cited from earlier work

CN[C@]1(c2ccccc2Cl)CCCCC1=O [esketamine HCl, (S)-2-(2-chlorophenyl)-2-(methylamino)cyclohexanone hydrochloride]
histopathological lesions / neuronal necrosis in the brain [1]: absence of neuronal necrosis; also recorded: No histopathological lesions | maximum solubility expressed as base [2]: 180 mg esketamine base/mL | duration of decreased activity, decubitus, bradypnea, catalepsy (anesthesia) after last instillation ([3]; 36 mg): 15 to 30 min | duration of ataxia after decreased activity had subsided ([3]; 54 mg, hydrochloride): 1.5 to 3 h and 1 to 3 h | duration of ataxia after decreased activity had subsided ([3]; 72 mg): ≥ 3 h | Clinical observation incidence: Abnormal respiration ([3]; 36 mg intranasal): 22/24 *** | Clinical observation incidence: Ataxia ([3]; 36 mg intranasal): 24/24 *** | Clinical observation incidence: Catalepsy ([3]; 36 mg intranasal): 20/24 *** | Clinical observation incidence: Chromodacryorrhea ([3]; 36 mg intranasal): 0/24 | Clinical observation incidence: Decreased general activity ([3]; 36 mg intranasal): 23/24 *** | Clinical observation incidence: Decubitus ([3]; 36 mg intranasal): 23/24 *** | Clinical observation incidence: Increased general activity ([3]; 36 mg intranasal): 24/24 *** | Clinical observation incidence: Narrowed palpebral fissure ([3]; 36 mg intranasal): 7/24** | Clinical observation incidence: Piloerection ([3]; 36 mg intranasal): 0/24 | Clinical observation incidence: Salivation (out of normal) ([3]; 36 mg intranasal): 23/24 *** | Clinical observation incidence: audible respiration ([3]; 36 mg intranasal): 10/24 *** | Clinical observation incidence: bradypnoea ([3]; 36 mg intranasal): 22/24 *** | Clinical observation incidence: Abnormal respiration ([3]; 54 mg intranasal): 22/24 *** | Clinical observation incidence: Ataxia ([3]; 54 mg intranasal): 24/24 *** | Clinical observation incidence: Catalepsy ([3]; 54 mg intranasal): 23/24 *** | Clinical observation incidence: Chromodacryorrhea ([3]; 54 mg intranasal): 0/24 | Clinical observation incidence: Decreased general activity ([3]; 54 mg intranasal): 23/24 *** | Clinical observation incidence: Decubitus ([3]; 54 mg intranasal): 23/24 *** | Clinical observation incidence: Increased general activity ([3]; 54 mg intranasal): 24/24 *** | Clinical observation incidence: Narrowed palpebral fissure ([3]; 54 mg intranasal): 10/24 *** | Clinical observation incidence: Piloerection ([3]; 54 mg intranasal): 0/24 | Clinical observation incidence: Salivation (out of normal) ([3]; 54 mg intranasal): 24/24 *** | Clinical observation incidence: audible respiration ([3]; 54 mg intranasal): 3/24 | Clinical observation incidence: bradypnoea ([3]; 54 mg intranasal): 21/24 *** | Clinical observation incidence: Abnormal respiration ([3]; 72 mg intranasal): 30/30 *** | Clinical observation incidence: Catalepsy ([3]; 72 mg intranasal): 30/30 *** | Clinical observation incidence: Chromodacryorrhea ([3]; 72 mg intranasal): 0/30 | Clinical observation incidence: Decreased general activity ([3]; 72 mg intranasal): 30/30 *** | Clinical observation incidence: Decubitus ([3]; 72 mg intranasal): 30/30 *** | Clinical observation incidence: Increased general activity ([3]; 72 mg intranasal): 29/30 *** | Clinical observation incidence: Narrowed palpebral fissure ([3]; 72 mg intranasal): 22/30 *** | Clinical observation incidence: Piloerection ([3]; 72 mg intranasal): 0/30 | Clinical observation incidence: Salivation (out of normal) ([3]; 72 mg intranasal): 29/30 *** | Clinical observation incidence: audible respiration ([3]; 72 mg intranasal): 2/30 | Clinical observation incidence: bradypnoea ([3]; 72 mg intranasal): 30/30 *** | mortality ([3]; single intranasal dose 72 mg, within 30 minutes): two main study animals and two satellite TK animals died | mortality ([3]; single intranasal dose up to 54 mg): No test article related mortality | histopathological lesions / neuronal necrosis in the brain [4]: no morphological evidence of neuronal degeneration; also recorded: absent; also recorded: No signs of neuronal necrosis; also recorded: no neuropathological lesions | Clinical observation incidence: Abnormal respiration ([5]; 18 mg/day intranasal): 2/12 | Clinical observation incidence: Ataxia ([5]; 18 mg/day intranasal): 12/12*** | Clinical observation incidence: Chromodacryorrhea ([5]; 18 mg/day intranasal): 0/12 | Clinical observation incidence: Decreased general activity ([5]; 18 mg/day intranasal): 5/12 | Clinical observation incidence: Decubitus ([5]; 18 mg/day intranasal): 0/12 | Clinical observation incidence: Increased general activity ([5]; 18 mg/day intranasal): 12/12*** | Clinical observation incidence: Salivation (out of normal) ([5]; 18 mg/day intranasal): 12/12*** | Clinical observation incidence: audible respiration ([5]; 18 mg/day intranasal): 2/12 | Clinical observation incidence: bradypnoea ([5]; 18 mg/day intranasal): 0/12 | Clinical observation incidence: Abnormal respiration ([5]; 36 mg/day intranasal): 11/12*** | Clinical observation incidence: Ataxia ([5]; 36 mg/day intranasal): 12/12*** | Clinical observation incidence: Chromodacryorrhea ([5]; 36 mg/day intranasal): 0/12 | Clinical observation incidence: Decreased general activity ([5]; 36 mg/day intranasal): 12/12*** | Clinical observation incidence: Decubitus ([5]; 36 mg/day intranasal): 2/12 | Clinical observation incidence: Increased general activity ([5]; 36 mg/day intranasal): 12/12*** | Clinical observation incidence: Salivation (out of normal) ([5]; 36 mg/day intranasal): 12/12*** | Clinical observation incidence: audible respiration ([5]; 36 mg/day intranasal): 6/12** | Clinical observation incidence: bradypnoea ([5]; 36 mg/day intranasal): 11/12*** | Clinical observation incidence: Abnormal respiration ([5]; 54 mg/day intranasal): 12/12*** | Clinical observation incidence: Ataxia ([5]; 54 mg/day intranasal): 12/12*** | Clinical observation incidence: Chromodacryorrhea ([5]; 54 mg/day intranasal): 0/12 | Clinical observation incidence: Decreased general activity ([5]; 54 mg/day intranasal): 12/12*** | Clinical observation incidence: Decubitus ([5]; 54 mg/day intranasal): 8/12*** | Clinical observation incidence: Increased general activity ([5]; 54 mg/day intranasal): 12/12*** | Clinical observation incidence: Salivation (out of normal) ([5]; 54 mg/day intranasal): 12/12*** | Clinical observation incidence: audible respiration ([5]; 54 mg/day intranasal): 6/12** | Clinical observation incidence: bradypnoea ([5]; 54 mg/day intranasal): 12/12*** | mortality ([5]; up to 54 mg/day for 14 days): No test article related mortality

CNC1(c2ccccc2Cl)CCCCC1=O (racemic) [ketamine, reference compound]
QC sample freeze/thaw stability ([6]; freeze (−20° C.)/thaw (ice-water bath)): 3 freeze (−20° C.)/thaw (ice-water bath) cycles | QC sample freeze/thaw stability ([6]; freeze (−20° C.)/thaw (room temperature)): 3 freeze (−20° C.)/thaw (room temperature) cycles | QC sample long-term storage stability ([6]; human plasma QC sample at −20° C.): 1552 days at −20 °C | QC sample bench-top stability ([6]; human plasma QC sample, room temperature): 68.5 hours at room temp | Stock solution stability (spike solutions) ([6]; ketamine/norketamine spike solutions at −20° C.): 610 days at −20 °C for ketamine/norketamine spike solutions | Processed sample stability ([6]; room temperature): 146.5 hours at room temperature | Whole Blood Stability ([6]; room temperature and ice-water bath (0-4° C.)): 120 minutes at room temperature and in an ice-water bath (0-4° C.) | Stock solution stability ([6]; stock solutions at room temperature under white light): 6 h | Stock solution stability ([6]; stock solutions at −20° C.): 15100 h | ED50 for induction of neuronal vacuolation in the PCG/RSC [7]: 47.5 mg/kg body weight
